Measured values from PubChem BioAssay AID192 (DTP/NCI, 2004).
Values joined by “and” are separate entries in the source; they are usually repeats but may differ in a detail not shown here. Equal values may be shown once. Inconclusive results and toxic doses are left out.

Tested on: BDF1 mice, B16 melanoma ip, median survival T/C
Assay: NCI In Vivo Anticancer Drug Screen. Data for tumor model B16 Melanoma (intraperitoneal) in B6D2F1 (BDF1) mice
Conditions: endpoint: median survival time, higher = longer survival
Summary of the method: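 Tumor-bearing mice received test compound or vehicle. Survival or tumor size was then measured in both groups. The treated-group figure was divided by the control-group figure.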

[1] = dose: 25.0 mg/kg/injection, schedule: Q01DX009 (ip), vehicle: saline with Tween-80
[2] = dose: 100.0 mg/kg/injection, schedule: Q01DX009 (ip), vehicle: saline with Tween-80
[3] = dose: 6.25 mg/kg/injection, schedule: Q01DX009 (ip), vehicle: saline with Tween-80
[4] = dose: 12.5 mg/kg/injection, schedule: Q01DX009 (ip), vehicle: saline with Tween-80
[5] = dose: 50.0 mg/kg/injection, schedule: Q01DX009 (ip), vehicle: saline with Tween-80

Which results are given for O=P1(N(CCCl)CCCl)NCCCO1 (configuration not stated)?
T/C (dose: 2.5 mg/kg/injection, schedule: Q01DX009 (ip), vehicle: saline): 102 % of control; T/C (dose: 5.0 mg/kg/injection, schedule: Q01DX009 (ip), vehicle: saline): 100 % of control; T/C (dose: 6.25 mg/kg/injection, schedule: Q01DX017 (ip), vehicle: saline): 110 % of control; T/C (dose: 6.25 mg/kg/injection, schedule: Q02DX009 (ip), vehicle: saline): 107 % of control and 108 % of control; T/C (dose: 10.0 mg/kg/injection, schedule: Q01DX005 (ip), vehicle: water): 100 % of control; T/C (dose: 10.0 mg/kg/injection, schedule: Q01DX009 (ip), vehicle: saline): 102 % of control; T/C (dose: 10.0 mg/kg/injection, schedule: Q01DX009 (ip), vehicle: water): 111 % of control; T/C (dose: 10.0 mg/kg/injection, schedule: Q04DX003 (ip), vehicle: saline): 114 % of control; T/C (dose: 12.0 mg/kg/injection, schedule: Q01DX009 (ip), vehicle: saline): 105 % of control; T/C (dose: 12.5 mg/kg/injection, schedule: Q01DX009 (ip), vehicle: water): 104 % of control; T/C (dose: 12.5 mg/kg/injection, schedule: Q02DX009 (ip), vehicle: saline): 107 % of control; T/C (dose: 15.0 mg/kg/injection, schedule: Q04DX003 (ip), vehicle: saline): 107 % of control; T/C (dose: 20.0 mg/kg/injection, schedule: Q01DX005 (ip), vehicle: water): 111 % of control; T/C (dose: 20.0 mg/kg/injection, schedule: Q01DX009 (ip), vehicle: saline): 112 % of control; T/C (dose: 20.0 mg/kg/injection, schedule: Q04DX003 (ip), vehicle: saline): 120 % of control; T/C (dose: 25.0 mg/kg/injection, schedule: Q01DX001 (ip), vehicle: saline): 103 % of control; T/C (dose: 25.0 mg/kg/injection, schedule: Q01DX009 (ip), vehicle: Klucel (hydroxypropylcellulose) (HPC)): 107 % of control; T/C [1]: 112 % of control; T/C (dose: 25.0 mg/kg/injection, schedule: Q01DX017 (ip), vehicle: saline): 150 % of control; T/C (dose: 25.0 mg/kg/injection, schedule: Q02DX009 (ip), vehicle: saline): 114 % of control and 122 % of control and 123 % of control; T/C (dose: 25.0 mg/kg/injection, schedule: Q04DX003 (ip), vehicle: saline): 119 % of control and 122 % of control; T/C (dose: 25.0 mg/kg/injection, schedule: Q08DX002 (ip), vehicle: saline): 117 % of control; T/C (dose: 30.0 mg/kg/injection, schedule: Q01DX009 (ip), vehicle: water): 161 % of control; T/C (dose: 30.0 mg/kg/injection, schedule: Q04DX003 (ip), vehicle: saline): 114 % of control; T/C (dose: 38.9 mg/kg/injection, schedule: Q08DX002 (ip), vehicle: saline): 116 % of control; T/C (dose: 40.0 mg/kg/injection, schedule: Q01DX005 (ip), vehicle: water): 122 % of control; T/C (dose: 40.0 mg/kg/injection, schedule: Q01DX009 (ip), vehicle: water): 172 % of control; T/C (dose: 40.0 mg/kg/injection, schedule: Q04DX003 (ip), vehicle: saline): 124 % of control; T/C (dose: 41.5 mg/kg/injection, schedule: Q04DX003 (ip), vehicle: saline): 120 % of control; T/C (dose: 50.0 mg/kg/injection, schedule: Q01DX009 (ip), vehicle: water): 159 % of control and 180 % of control; T/C (dose: 50.0 mg/kg/injection, schedule: Q01DX017 (ip), vehicle: saline): 110 % of control; T/C (dose: 50.0 mg/kg/injection, schedule: Q04DX003 (ip), vehicle: saline): 124 % of control; T/C (dose: 50.0 mg/kg/injection, schedule: Q04DX005 (ip), vehicle: saline): 162 % of control; T/C (dose: 60.0 mg/kg/injection, schedule: Q01DX005 (ip), vehicle: water): 169 % of control; T/C (dose: 72.0 mg/kg/injection, schedule: Q01DX001 (ip), vehicle: saline): 110 % of control; T/C (dose: 75.0 mg/kg/injection, schedule: Q01DX001 (ip), vehicle: Klucel (hydroxypropylcellulose) (HPC)): 156 % of control; T/C (dose: 80.0 mg/kg/injection, schedule: Q04DX003 (ip), vehicle: saline): 159 % of control; T/C (dose: 93.3 mg/kg/injection, schedule: Q04DX003 (ip), vehicle: saline): 169 % of control; T/C (dose: 100.0 mg/kg/injection, schedule: Q01DX009 (ip), vehicle: Klucel (hydroxypropylcellulose) (HPC)): 117 % of control; T/C [2]: 103 % of control and 117 % of control; T/C (dose: 100.0 mg/kg/injection, schedule: Q02DX009 (ip), vehicle: saline): 91 % of control and 112 % of control; T/C (dose: 100.0 mg/kg/injection, schedule: Q04DX005 (ip), vehicle: saline): 105 % of control; T/C (dose: 100.0 mg/kg/injection, schedule: Q08DX003 (ip), vehicle: saline): 166 % of control; T/C (dose: 108.0 mg/kg/injection, schedule: Q08DX002 (ip), vehicle: saline): 161 % of control; T/C (dose: 120.0 mg/kg/injection, schedule: Q01DX001 (ip), vehicle: saline): 124 % of control; T/C (dose: 120.0 mg/kg/injection, schedule: Q04DX003 (ip), vehicle: saline): 163 % of control; T/C (dose: 140.0 mg/kg/injection, schedule: Q04DX003 (ip), vehicle: saline): 169 % of control; T/C (dose: 160.0 mg/kg/injection, schedule: Q04DX003 (ip), vehicle: saline): 191 % of control; T/C (dose: 180.0 mg/kg/injection, schedule: Q08DX002 (ip), vehicle: saline): 192 % of control; T/C (dose: 200.0 mg/kg/injection, schedule: Q01DX001 (ip), vehicle: water): 121 % of control; T/C (dose: 200.0 mg/kg/injection, schedule: Q04DX003 (ip), vehicle: saline): 111 % of control; T/C (dose: 210.0 mg/kg/injection, schedule: Q04DX003 (ip), vehicle: saline): 205 % of control; T/C (dose: 300.0 mg/kg/injection, schedule: Q01DX001 (ip), vehicle: Klucel (hydroxypropylcellulose) (HPC)): 100 % of control; T/C (dose: 300.0 mg/kg/injection, schedule: Q08DX002 (ip), vehicle: saline): 117 % of control and 220 % of control and 226 % of control; T/C (dose: 333.0 mg/kg/injection, schedule: Q01DX001 (ip), vehicle: saline): 155 % of control

What does the source list for CC(C)c1ccc(O)c(O)c1?
T/C (dose: 12.5 mg/kg/injection, schedule: Q01DX009 (ip), vehicle: saline): 95 % of control; T/C [1]: 104 % of control; T/C (dose: 25.0 mg/kg/injection, schedule: Q01DX009 (ip), vehicle: saline): 100 % of control; T/C (dose: 50.0 mg/kg/injection, schedule: Q01DX009 (ip), vehicle: saline): 96 % of control

Which T/C (dose: 0.39 mg/kg/injection, schedule: Q01DX009 (ip), vehicle: saline) does the source give for O=C(CCCN1CCC2(CC1)C(=O)NCN2c1ccccc1)c1ccc(F)cc1 here?
Its T/C is 92 % of control.

And the T/C (dose: 0.78 mg/kg/injection, schedule: Q01DX009 (ip), vehicle: saline)?
The T/C was 89 % of control.

And the T/C (dose: 1.56 mg/kg/injection, schedule: Q01DX009 (ip), vehicle: saline)?
The T/C was 94 % of control.

How did the T/C (dose: 2.0 micrograms/kg/injection, schedule: Q01DX009 (ip), vehicle: saline) turn out when CN(C)CCCNc1c2ccccc2nc2cccc([N+](=O)[O-])c12 was run?
The T/C was 112 % of control.

And the T/C (dose: 4.0 micrograms/kg/injection, schedule: Q01DX009 (ip), vehicle: saline)?
Its T/C is 116 % of control.

And the T/C (dose: 8.0 micrograms/kg/injection, schedule: Q01DX009 (ip), vehicle: saline)?
Its T/C is 107 % of control.

And the T/C (dose: 16.0 micrograms/kg/injection, schedule: Q01DX009 (ip), vehicle: saline)?
The T/C was 109 % of control.

What about the T/C (dose: 32.0 micrograms/kg/injection, schedule: Q01DX009 (ip), vehicle: saline) of the same molecule?
Its T/C is 121 % of control.

And the T/C (dose: 63.0 micrograms/kg/injection, schedule: Q01DX009 (ip), vehicle: saline)?
The T/C was 103 % of control.

And the T/C (dose: 125.0 micrograms/kg/injection, schedule: Q01DX009 (ip), vehicle: saline)?
Its T/C is 90 % of control.

What does the source list for COC(=Nc1ccccc1)SSC(C)C?
T/C [3]: 113 % of control; T/C [4]: 108 % of control; T/C [1]: 102 % of control; T/C [5]: 100 % of control; T/C [2]: 97 % of control

Which T/C (dose: 100.0 mg/kg/injection, schedule: Q04DX003 (ip), vehicle: saline with Tween-80) does the source give for O=Cc1ccc(C(=O)O)cc1 here?
Its T/C is 93 % of control.

What about the T/C (dose: 200.0 mg/kg/injection, schedule: Q04DX003 (ip), vehicle: saline with Tween-80) of the same molecule?
Its T/C is 93 % of control.

What about the T/C (dose: 400.0 mg/kg/injection, schedule: Q04DX003 (ip), vehicle: saline with Tween-80) of the same molecule?
The T/C was 86 % of control.

For OC(COC(c1ccccc1)(c1ccccc1)c1ccccc1)C(O)CC1SCCS1 (configuration not stated), which T/C (dose: 3.13 mg/kg/injection, schedule: Q01DX009 (ip), vehicle: saline with Tween-80) is on record?
The T/C was 107 % of control.

And the T/C [3]?
Its T/C is 100 % of control.

And the T/C [4]?
Its T/C is 103 % of control.

And the T/C [1]?
Its T/C is 104 % of control.

For CN(C)NCCN1CCN(CCCN2c3ccccc3Sc3ccc(C(F)(F)F)cc32)CC1, which T/C (dose: 3.75 mg/kg/injection, schedule: Q01DX009 (ip), vehicle: saline) is on record?
The T/C was 93 % of control.

What about the T/C (dose: 7.5 mg/kg/injection, schedule: Q01DX009 (ip), vehicle: saline) of the same molecule?
Its T/C is 112 % of control.

For Cc1[nH]c(N)nc(=S)c1CCC(=O)Nc1ccc(C(=O)NC(CCC(=O)O)C(=O)O)cc1 (configuration not stated), which T/C [5] is on record?
Its T/C is 101 % of control.

And the T/C [2]?
Its T/C is 101 % of control.

And the T/C (dose: 200.0 mg/kg/injection, schedule: Q01DX009 (ip), vehicle: saline with Tween-80)?
The T/C was 100 % of control.

What about the T/C (dose: 400.0 mg/kg/injection, schedule: Q01DX009 (ip), vehicle: saline with Tween-80) of the same molecule?
The T/C was 110 % of control.
